# Measured values reported in patent US6555574B1, “4-oxybenzopyran derivative” (Nissan Chemical Industries, Ltd., priority 1999, dated 2003).
row,melting point [°C],SMILES
1,115 to 116,"CCCO[C@H]1c2cc(NC(=O)Cc3ccc(OC)cc3)c([N+](=O)[O-])cc2OC(C)(C)[C@@H]1O (relative stereo) [Synthesis example 4, (3R*, 4S*)-3,4-dihydro-2,2-dimethyl-4-propoxy-6-(4-methoxyphenylacetylamino)-7-nitro-2H-1-benzopyran-3-ol]"
2,178 to 178.6,"COc1ccc(CC(=O)Nc2cc3c(cc2[N+](=O)[O-])OC(C)(C)[C@H](O)[C@H]3Oc2ccccc2)cc1 (relative stereo) [Synthesis example 7, Trans-3,4-dihydro-2,2-dimethyl-6-(4-methoxyphenyl)acetylamino-7-nitro-4-phenyloxy-2H-1-benzopyran-3-ol]"
3,125.2 to 125.5,"COc1ccc(CC(=O)Nc2cc3c(cc2[N+](=O)[O-])OC(C)(C)[C@H](O)[C@H]3OCCc2ccccc2)cc1 [Synthesis example 6, Trans-3,4-dihydro-2,2-dimethyl-6-(4-methoxyphenyl)acetylamino-7-nitro-4-(2-phenylethoxy)-2H-1-benzoypyran-3-ol]"
4,117.8 to 119.1,COc1ccc(CC(=O)Nc2cc3c(cc2[N+](=O)[O-])OC(C)(C)[C@H](O)[C@H]3OCc2ccccc2)cc1 [Synthesis example 8]
